Data on 39 compounds can be found in patent US20230293518A1 (Edgewise Therapeutics, Inc., priority 2020, published 2023).

For orientation: IC50 means the concentration that gives 50% inhibition. Low readings indicate greater potency, high ones weaker potency.

In this experiment the target is skeletal myofibrils (myosin ATPase). As to the kind of experiment: Skeletal Myofibril ATPase Assay. In kind it is biochemical. In short, it runs like this: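 IC50 came from four-parameter logistic fits, bottom constrained ≥0, of (Max−Min) A340 values normalised to 1% DMSO controls. Readings were taken kinetically over 45 min at 1.5-2 min intervals, with ADP from myofibril myosin ATPase coupled through PK-LDH to NADH oxidation. Buffer was pCa (PIPES/CaCl2/EGTA), pH 7.0.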

`COc1ccc(-c2ccc(=O)n(CC(=O)NCc3cc(F)ccc3Cl)n2)cc1` [IIIa-7, N-(2-chloro-5-fluorobenzyl)-2-(3-(4-methoxyphenyl)-6-oxopyridazin-1(6H)-yl)acetamide] yielded an IC50 (Table 4C) below 10 µM. Same read-out and setting: then `CCNC(=O)Cn1nc(-c2ccc(C3CC3)cc2)ccc1=O` [IIIa-19, 2-(3-(4-cyclopropylphenyl)-6-oxopyridazin-1(6H)-yl)-N-ethylacetamide], with below 10 µM. Compound `CCNC(=O)Cn1nc(-c2ccc(OCC3(F)COC3)nc2)ccc1=O` [Compound I-23, N-ethyl-2-(3-(6-((3-fluorooxetan-3-yl)methoxy)pyridin-3-yl)-6-oxopyridazin-1(6H)-yl)acetamide] showed an IC50 (Table 4A) of 10 to 100 µM. Turning to `COc1ccc(-c2ccc(=O)n(CC(=O)NCc3ccccc3)n2)cc1` [IIIb-20, N-benzyl-2-(3-(4-methoxyphenyl)-6-oxopyridazin-1(6H)-yl)acetamide], the IC50 (Table 4C) was 10 to 100 µM. In turn, `CCNC(=O)Cn1nc(-c2ccc(NC3CC(F)(F)C3)nc2)ccc1=O` [Compound I-74, 2-(3-(6-((3,3-difluorocyclobutyl)amino)pyridin-3-yl)-6-oxopyridazin-1(6H)-yl)-N-ethylacetamide] had an IC50 (Table 4A) of 10 to 100 µM. `COc1ccc(-c2ccc(=O)n(CC(=O)NCc3ccccc3Cl)n2)cc1C` [IIIa-23, N-(2-chlorobenzyl)-2-(3-(4-methoxy-3-methylphenyl)-6-oxopyridazin-1(6H)-yl)acetamide] came in with an IC50 (Table 4C) of 10 to 100 µM. In the case of `CCNC(=O)Cn1nc(-c2cnc(Nc3ccc(F)cc3)nc2)ccc1=O` [Compound I-2, N-ethyl-2-(3-(2-((4-fluorophenyl)amino)pyrimidin-5-yl)-6-oxopyridazin-1(6H)-yl)acetamide], under “Table 4A”, the IC50 is below 10 µM.

On to `CC(C)COc1ncc(-c2ccc(=O)n(CC(=O)NC3CCC3)n2)cn1` [Compound I-79, N-cyclobutyl-2-[3-[2-(2-methylpropoxy)pyrimidin-5-yl]-6-oxopyridazin-1-yl]acetamide], for which the IC50 (Table 4A) is above 100 µM. Compound `COc1ccc(-c2ccc(=O)n(CC(=O)Nc3cc(Cl)ccc3Cl)n2)cc1` [IIIb-10, N-(2,5-dichlorophenyl)-2-(3-(4-methoxyphenyl)-6-oxopyridazin-1(6H)-yl)acetamide] had an IC50 (Table 4C) below 10 µM. For `CCNC(=O)Cn1nc(-c2ccc(NC3CCOCC3)nc2)ccc1=O` [Compound I-45, N-ethyl-2-(6-oxo-3-(6-((tetrahydro-2H-pyran-4-yl)amino)pyridin-3-yl)pyridazin-1(6H)-yl)acetamide], the IC50 (Table 4A) was above 100 µM. Where the note is “Table 4C”, `COc1ccc(-c2ccc(=O)n(CC(=O)NCc3ccc(Cl)cc3)n2)cc1` [IIIb-31, N-(4-chlorobenzyl)-2-(3-(4-methoxyphenyl)-6-oxopyridazin-1(6H)-yl)acetamide] came in with an IC50 of 10 to 100 µM. `CCC(C)(C)NC(=O)Cn1nc(-c2ccc(OC(F)F)nc2)ccc1=O` [Compound I-20, 2-(3-(6-(difluoromethoxy)pyridin-3-yl)-6-oxopyridazin-1(6H)-yl)-N-(tert-pentyl)acetamide] showed an IC50 (Table 4A) of 10 to 100 µM. `COc1ccc(-c2ccc(=O)n(CC(=O)Nc3ccc4c(c3)OCO4)n2)cc1` [IIIb-28, N-(benzo[d][1,3]dioxol-5-yl)-2-(3-(4-methoxyphenyl)-6-oxopyridazin-1(6H)-yl)acetamide] yielded an IC50 (Table 4C) of 10 to 100 µM. Still for that read-out and setting: the same measure for `O=C(Cn1nc(-c2ccccc2)ccc1=O)Nc1cccc2[nH]ccc12` [IIIc-50, N-(1H-indol-4-yl)-2-(6-oxo-3-phenylpyridazin-1(6H)-yl)acetamide]: 10 to 100 µM. `CC(C)(C)NC(=O)Cn1nc(-c2ccc(OC(F)F)cc2)ccc1=O` [II-16, N-(tert-butyl)-2-(3-(4-(difluoromethoxy)phenyl)-6-oxopyridazin-1(6H)-yl)acetamide]: the IC50 (Table 4B) was 10 to 100 µM. With `CCNC(=O)Cn1nc(-c2ccc(NC(C)(C)C)nc2)ccc1=O` [Compound I-53, 2-(3-(6-(tert-butylamino)pyridin-3-yl)-6-oxopyridazin-1(6H)-yl)-N-ethylacetamide], the IC50 (Table 4A) was below 10 µM. Regarding `COc1ccc(-c2ccc(=O)n(CC(=O)Nc3cccc4[nH]ccc34)n2)c(F)c1` [IIIb-2, 2-(3-(2-fluoro-4-methoxyphenyl)-6-oxopyridazin-1(6H)-yl)-N-(1H-indol-4-yl)acetamide], the IC50 (Table 4C) is below 10 µM.

On to `COc1ccc(-c2ccc(=O)n(CC(=O)NCc3cnoc3)n2)cc1` [IIIa-31, N-(isoxazol-4-ylmethyl)-2-(3-(4-methoxyphenyl)-6-oxopyridazin-1(6H)-yl)acetamide], for which the IC50 (Table 4C) was above 100 µM. As to `CCNC(=O)Cn1nc(-c2cnc(Oc3ccc(Cl)cc3)nc2)ccc1=O` [Compound I-78, 2-(3-(2-(4-chlorophenoxy)pyrimidin-5-yl)-6-oxopyridazin-1(6H)-yl)-N-ethylacetamide], the IC50 (Table 4A) was in the range of 10 to 100 µM.

`O=C(Cn1nc(-c2cnc(OCCOC(F)(F)F)nc2)ccc1=O)NC1CCC1` [Compound I-72, N-cyclobutyl-2-(6-oxo-3-(2-(2-(trifluoromethoxy)ethoxy)pyrimidin-5-yl)pyridazin-1(6H)-yl)acetamide] yielded an IC50 (Table 4A) below 10 µM.

For the setting “Table 4C”, `COc1ccc(-c2ccc(=O)n(CC(=O)NCc3ccccc3C)n2)cc1` [IIIa-16, 2-(3-(4-methoxyphenyl)-6-oxopyridazin-1(6H)-yl)-N-(2-methylbenzyl) acetamide] had an IC50 below 10 µM. On the same count and under the same terms, then `COc1ccc(-c2ccc(=O)n(CC(=O)NCc3ccccc3F)n2)cc1` [IIIb-38, N-(2-fluorobenzyl)-2-(3-(4-methoxyphenyl)-6-oxopyridazin-1(6H)-yl)acetamide], with above 100 µM.

The compound `CCNC(=O)Cn1nc(-c2ccc(N3CCCC3C(F)(F)F)nc2)ccc1=O` (stereo not drawn) [Compound I-48, N-ethyl-2-(6-oxo-3-(6-(2-(trifluoromethyl)pyrrolidin-1-yl)pyridin-3-yl)pyridazin-1(6H)-yl)acetamide] gave an IC50 (Table 4A) below 10 µM. In turn, `COc1ccc(-c2ccc(=O)n(CC(=O)NCc3nccn3C)n2)cc1` [IIIa-33, 2-(3-(4-methoxyphenyl)-6-oxopyridazin-1(6H)-yl)-N-((1-methyl-1H-imidazol-2-yl)methyl) acetamide] had an IC50 (Table 4C) above 100 µM.

In the case of `CCNC(=O)Cn1nc(-c2ccc(OCC(F)F)cc2)ccc1=O` [II-7, 2-(3-(4-(2,2-difluoroethoxy)phenyl)-6-oxopyridazin-1(6H)-yl)-N-ethylacetamide], under “Table 4B”, the IC50 was below 10 µM.

For the compound `CCCOc1ncc(-c2ccc(=O)n(CC(=O)NC3CCC3)n2)cn1` [Compound I-73, N-cyclobutyl-2-(6-oxo-3-(2-propoxypyrimidin-5-yl)pyridazin-1(6H)-yl)acetamide], where the note is “Table 4A”, the IC50 is below 10 µM. On the same count and under the same terms, then `CC[C@H](C)NC(=O)Cn1nc(-c2ccc(OC(F)F)nc2)ccc1=O` [Compound I-67, (S)-N-(sec-butyl)-2-(3-(6-(difluoromethoxy)pyridin-3-yl)-6-oxopyridazin-1(6H)-yl)acetamide], with below 10 µM. Regarding `COc1ccc(-c2ccc(=O)n(CC(=O)NCc3cccc(C)c3)n2)cc1` [IIIa-10, 2-(3-(4-methoxyphenyl)-6-oxopyridazin-1(6H)-yl)-N-(3-methylbenzyl) acetamide], the IC50 (Table 4C) was below 10 µM. The compound `CCNC(=O)Cn1nc(-c2ccc(NC34CC(CO)(C3)C4)nc2)ccc1=O` [Compound I-58, N-ethyl-2-(3-(6-((3-(hydroxymethyl)bicyclo[1.1.1]pentan-1-yl)amino)pyridin-3-yl)-6-oxopyridazin-1(6H)-yl)acetamide] displayed an IC50 (Table 4A) of 10 to 100 µM.

Turning to `O=C(Cn1nc(-c2ccc(Cl)cc2)ccc1=O)Nc1ccccc1Cl` [IIIc-28, N-(2-chlorophenyl)-2-(3-(4-chlorophenyl)-6-oxopyridazin-1(6H)-yl)acetamide], the IC50 (Table 4C) is below 10 µM. The compound `Cn1nccc1CNC(=O)Cn1nc(-c2ccc(OC(F)F)nc2)ccc1=O` [Compound I-30, 2-(3-(6-(difluoromethoxy)pyridin-3-yl)-6-oxopyridazin-1(6H)-yl)-N-((1-methyl-1H-pyrazol-5-yl)methyl)acetamide] gave an IC50 (Table 4A) above 100 µM.

The compound `O=C(Cn1nc(-c2ccc(NC34CC(C3)C4)nc2)ccc1=O)NC1CCC1` [Compound I-54, 2-(3-(6-(bicyclo[1.1.1]pentan-1-ylamino)pyridin-3-yl)-6-oxopyridazin-1(6H)-yl)-N-cyclobutylacetamide] had an IC50 (Table 4A) below 10 µM. Same read-out and setting: the same measure for `CCNC(=O)Cn1nc(-c2ccc(OC(F)F)[n+]([O-])c2)ccc1=O` [Compound I-65, 2-(difluoromethoxy)-5-(1-(2-(ethylamino)-2-oxoethyl)-6-oxo-1,6-dihydropyridazin-3-yl)pyridine 1-oxide]: above 100 µM. For `CCNC(=O)Cn1nc(-c2ccc(SC)nc2)ccc1=O` [Compound I-63, N-ethyl-2-(3-(6-(methylthio)pyridin-3-yl)-6-oxopyridazin-1(6H)-yl)acetamide], the IC50 (Table 4A) was below 10 µM. Turning to `CCOc1ccc(-c2ccc(=O)n(CC(=O)NC(C)C)n2)cc1` [IIIa-6, 2-(3-(4-ethoxyphenyl)-6-oxopyridazin-1(6H)-yl)-N-isopropylacetamide], the IC50 (Table 4C) was below 10 µM. `COc1ccc(-c2ccc(=O)n(CC(=O)Nc3cc(OC)ccc3OC)n2)cc1` [IIIb-25, N-(2,5-dimethoxyphenyl)-2-(3-(4-methoxyphenyl)-6-oxopyridazin-1(6H)-yl)acetamide] displayed an IC50 (Table 4C) of 10 to 100 µM. On the same count and under the same terms, then `COc1ccc(-c2ccc(=O)n(CC(=O)NCC3CCCCC3)n2)cc1` [IIIa-4, N-(cyclohexylmethyl)-2-(3-(4-methoxyphenyl)-6-oxopyridazin-1(6H)-yl)acetamide], with below 10 µM. On to `CCNC(=O)Cn1nc(-c2ccc(N3CC(F)(F)C3)nc2)ccc1=O` [Compound I-6, 2-(3-(6-(3,3-difluoroazetidin-1-yl)pyridin-3-yl)-6-oxopyridazin-1(6H)-yl)-N-ethylacetamide], for which, under “Table 4A”, the IC50 lay within 10 to 100 µM. Still for that read-out and setting: the same measure for `CCNC(=O)Cn1nc(-c2ccc(OCCCN(C)C)nc2)ccc1=O` [Compound I-28, 2-(3-(6-(3-(dimethylamino)propoxy)pyridin-3-yl)-6-oxopyridazin-1(6H)-yl)-N-ethylacetamide]: above 100 µM.
